The conditions of data set [1]: cited from earlier work.
The next data set relates to estrogen receptor (ER). Particulars: compared with other isoflavones; cited from earlier work.
The nature of data set [2]: Metabolic profile of isoflavones and their metabolites in blood of dogs. The data set is classed as in vivo, dog. Particulars: blood of dogs tested; FIG. 8B. An excerpt:
The following measurements were made for each animal: • Body weight, body condition score, DEXA. • Plasma concentrations of isoflavones and their metabolites • Blood leptin • Intravenous glucose tolerance test • Oxidative stress measurement (isoprostanes: 8-iso-prostaglandin F2α, formed from arachidonic acid in phospholipids by free radical reaction): 3-month samples
The metabolic profiles of isoflavones and their metabolites in the blood of humans (FIG. 8A) and dogs (FIG. 8B) were compared.

Data set [3] relates to rats after surgically-induced menopause. Particulars: cited from earlier work.
A further data set relates to rat adipocytes. The following applies: cited from earlier work.
In the next data set the test system is angiogenesis. The following applies: cited from earlier work.
The test system of another data set is tyrosine protein kinase. Particulars: cited from earlier work.
The subject of another data set is topoisomerase II. Particulars: cited from earlier work.

Turning to `O=C1c2ccc(O)cc2OCC1c1ccc(O)cc1` (stereo not shown) [dihydrodaidzein], the “free radical scavenging activities” value in data set [1] (Jiang 2003) is “appears to have free radical scavenging activities”.

As to `Oc1ccc([C@H]2COc3cc(O)ccc3C2)cc1` [Equol], the antioxidant activity entry in data set [1] (compared with all the isoflavones tested, Setchell 2002) is “greatest antioxidant activity of all the isoflavones tested”. In addition, in the data set on estrogen receptor (ER), the “induction of estrogen receptor (ER)-responsive transcription (estrogenic activity)” value is “more strongly than any other isoflavones”. Also, the “form of isoflavone metabolite in the blood” value in data set [2] is listed as “predominant form of isoflavone metabolite”.

Regarding `O=c1c(-c2ccc(O)cc2)coc2cc(O)ccc12` [Daidzein, daidzein], the body fat accumulation result in data set [3] is “suppressing body fat accumulation”. Besides, in the data set on rat adipocytes, the “basal and epinephrine-stimulated lipolysis” value was “enhanced”; the “basal and insulin-stimulated lipogenesis” value is “inhibited”.

As to `O=c1c(-c2ccc(O)cc2)coc2cc(O)cc(O)c12` [genistein], the inhibition of angiogenesis entry in the data set on angiogenesis is recorded as “inhibits angiogenesis”. Besides, the “inhibition of tyrosine protein kinase” value in the data set on tyrosine protein kinase is on record as “inhibits”. Further, the “inhibition of topoisomerase II” value in the data set with topoisomerase II is given as “inhibitor”. Moreover, in the data set with rat adipocytes, the “basal and epinephrine-stimulated lipolysis” value is reported as “enhanced”; the “basal and insulin-stimulated lipogenesis” value is reported as “inhibited”.

`COc1cc2c(=O)c(-c3ccc(O)cc3)coc2cc1O` [glycitein]: the body fat accumulation result in data set [3] is “suppressing body fat accumulation”.

The record behind these values is patent publication US8883192B2, “Compositions and methods for reducing or preventing obesity” (Nestec S.A., priority 2004, dated 2014).
